# Test: Particle size distribution of micronized cinacalcet hydrochloride by Malvern Mastersizer
# Format: physicochemical
# Conditions: particle size after jet milling
# Procedure: Micronization of cinacalcet hydrochloride was carried out by Jet Milling. Particle size of micronized cinacalcet hydrochloride was measured with Malvern Mastersizer.
Structure (SMILES),D10 [μm],D50 [μm],D90 [μm]
"C[C@@H](NCCCc1cccc(C(F)(F)F)c1)c1cccc2ccccc12.Cl [Batch No 60002, N-[1-(R)-(−)-(1-naphthyl)ethyl]-3-[3(trifluoromethyl)phenyl]-1-aminopropane hydrochloride]",4.06,9.58,18.8
"C[C@@H](NCCCc1cccc(C(F)(F)F)c1)c1cccc2ccccc12.Cl [Batch No 70001, N-[1-(R)-(−)-(1-naphthyl)ethyl]-3-[3(trifluoromethyl)phenyl]-1-aminopropane hydrochloride]",2.66,6.55,13.4
"C[C@@H](NCCCc1cccc(C(F)(F)F)c1)c1cccc2ccccc12.Cl [Batch No 70002, N-[1-(R)-(−)-(1-naphthyl)ethyl]-3-[3(trifluoromethyl)phenyl]-1-aminopropane hydrochloride]",2.35,6.81,15.4
"C[C@@H](NCCCc1cccc(C(F)(F)F)c1)c1cccc2ccccc12.Cl [Micronized cinacalcet hydrochloride, N-[1-(R)-(−)-(1-naphthyl)ethyl]-3-[3(trifluoromethyl)phenyl]-1-aminopropane hydrochloride]",≤ 5,≤ 10,≤ 20

# — patent publication US11331283B2, “Pharmaceutical compositions comprising cinacalcet hydrochloride and one or more binders” (UNICHEM LABORATORIES LTD, priority 2017, dated 2022)
